The source of these data is US20240366598A1, “GLUCOSE-DEPENDENT INSULINOTROPIC POLYPEPTIDE RECEPTOR ANTAGONISTS AND USES THEREOF” (Pfizer Inc., priority 2023, published 2024).

In the assay the target is T1, human Glucose-dependent Insulinotropic Polypeptide Receptor (hGIPR) (Homo sapiens, UniProt P48546).
T1 sequence (P48546 22-466): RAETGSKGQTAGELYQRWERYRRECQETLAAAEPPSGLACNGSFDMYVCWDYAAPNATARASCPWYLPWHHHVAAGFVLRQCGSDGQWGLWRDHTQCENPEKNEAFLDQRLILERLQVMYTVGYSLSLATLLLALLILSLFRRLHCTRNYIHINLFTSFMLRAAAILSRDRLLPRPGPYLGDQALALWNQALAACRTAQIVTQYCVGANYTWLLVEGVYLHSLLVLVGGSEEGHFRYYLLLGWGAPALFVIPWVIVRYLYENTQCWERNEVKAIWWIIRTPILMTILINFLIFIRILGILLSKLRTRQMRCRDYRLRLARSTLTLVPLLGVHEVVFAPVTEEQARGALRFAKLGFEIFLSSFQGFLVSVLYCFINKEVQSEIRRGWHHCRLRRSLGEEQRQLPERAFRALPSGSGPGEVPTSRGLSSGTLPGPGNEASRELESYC
The assay is described as follows: Functional in vitro GIPR antagonist potency assay (cAMP HTRF, CHO-K1 cells stably expressing hGIPR, hGIP stimulation at about EC80). It counts as cell-based. Conditions: geometric mean, hGIP at estimated EC80, examples marked ^2: overall geometric mean of multiple forms (including salts) tested. The procedure, abridged:
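HTRF quantification of cAMP after stimulation with hGIP at an estimated EC80 for 30 min at 37 °C. Before stimulation, hGIPR-expressing CHO-K1 cells were exposed 2 h to test compound in IBMX-containing buffer, with 0.5% DMSO final. Percent effect is referenced to agonist alone (0%) and to 80 μM of a reference antagonist (100%), and runs required the agonist concentration to fall within the on-the-day EC50–EC90.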
`Cc1cc(C(=O)O)c(F)cc1-c1ccc(NC(=O)[C@H]2CCCN2C(=O)Nc2ccc(C(C)C)cc2)cc1` [Example 84, 5-fluoro-2-methyl-4′-[(1-{[4-(propan-2-yl)phenyl]carbamoyl}-D-prolyl)amino][1,1′-biphenyl]-4-carboxylic acid]: the half-inhibitory concentration (IC50) was 19 nM.
With `CC(C)c1ccc(NC(=O)N2CCC[C@@H]2C(=O)Nc2ccc(-c3cc(F)cc(C(=O)O)c3)cc2)cc1` [Example 85, 5-fluoro-4′-[(1-{[4-(propan-2-yl)phenyl]carbamoyl}-D-prolyl)amino][1,1′-biphenyl]-3-carboxylic acid] the figure was 260 nM; with `Cc1cc(-c2ccc(NC(=O)[C@H]3CCCN3C(=O)Nc3ccc(C(C)C)cc3)cc2)c(F)cc1C(=O)O` [Example 86, 2-fluoro-5-methyl-4′-[(1-{[4-(propan-2-yl)phenyl]carbamoyl}-D-prolyl)amino][1,1′-biphenyl]-4-carboxylic acid], 7.5 nM.
For `Cc1c(C(=O)O)ccc(-c2ccc(NC(=O)[C@H]3CCCN3C(=O)Nc3ccc(C(C)C)cc3)cc2)c1F` [Example 87, 2-fluoro-3-methyl-4′-[(1-{[4-(propan-2-yl)phenyl]carbamoyl}-D-prolyl)amino][1,1′-biphenyl]-4-carboxylic acid], the half-inhibitory concentration (IC50) was 11 nM.
The value for `CC(C)c1ccc(NC(=O)N2CCC[C@@H]2C(=O)Nc2ccc(-c3ccc(F)c(C(=O)O)c3F)cc2)cc1` [Example 88, 2,4-difluoro-4′-[(1-{[4-(propan-2-yl)phenyl]carbamoyl}-D-prolyl)amino][1,1′-biphenyl]-3-carboxylic acid] was 430 nM.
With `COc1cc(-c2ccc(NC(=O)[C@H]3CCCN3C(=O)Nc3ccc(C(C)C)cc3)cc2)c(F)cc1C(=O)O` [Example 89, 2-fluoro-5-methoxy-4′-[(1-{[4-(propan-2-yl)phenyl]carbamoyl}-D-prolyl)amino][1,1′-biphenyl]-4-carboxylic acid] the figure was 18 nM.
With `Cc1cc(C(=O)O)cc(Cl)c1-c1ccc(NC(=O)[C@H]2CCCN2C(=O)Nc2ccc(C(C)C)cc2)cc1` [Example 90, 2-chloro-6-methyl-4′-[(1-{[4-(propan-2-yl)phenyl]carbamoyl}-D-prolyl)amino][1,1′-biphenyl]-4-carboxylic acid], the IC50 is 45 nM.
On to `CC(C)c1ccc(NC(=O)N2CCC[C@@H]2C(=O)Nc2ccc(-c3ccc(C(N)=O)cc3)cc2)cc1` [Example 91, (2R)-N^2-(4′-carbamoyl[1,1′-biphenyl]-4-yl)-N^1-[4-(propan-2-yl)phenyl]pyrrolidine-1,2-dicarboxamide], for which the half-inhibitory concentration (IC50) is 39 nM.
For `COc1cc(C(=O)O)cc(C)c1-c1ccc(NC(=O)[C@H]2CCCN2C(=O)Nc2ccc(C(C)C)cc2)cc1` [Example 92, 2-methoxy-6-methyl-4′-[(1-{[4-(propan-2-yl)phenyl]carbamoyl}-D-prolyl)amino][1,1′-biphenyl]-4-carboxylic acid], the half-inhibitory concentration (IC50) was 87 nM.
With `COc1ccc(-c2ccc(NC(=O)[C@H]3CCCN3C(=O)Nc3ccc(C(C)C)cc3)cc2)cc1C(=O)O` [Example 93, 4-methoxy-4′-[(1-{[4-(propan-2-yl)phenyl]carbamoyl}-D-prolyl)amino][1,1′-biphenyl]-3-carboxylic acid], the IC50 was 79 nM.
Take `Cc1ccc(C(=O)O)cc1-c1ccc(NC(=O)[C@H]2CCCN2C(=O)Nc2ccc(C(C)C)cc2)cc1` [Example 94, 6-methyl-4′-[(1-{[4-(propan-2-yl)phenyl]carbamoyl}-D-prolyl)amino][1,1′-biphenyl]-3-carboxylic acid]: the half-inhibitory concentration (IC50) was 190 nM.
Take `CCc1cc(-c2ccc(NC(=O)[C@H]3CCCN3C(=O)Nc3ccc(C(C)C)cc3)cc2)ccc1C(=O)O` [Example 95, 3-ethyl-4′-[(1-{[4-(propan-2-yl)phenyl]carbamoyl}-D-prolyl)amino][1,1′-biphenyl]-4-carboxylic acid]: the IC50 is 13 nM.

Usually IC50 stands for the concentration at which inhibition is half-maximal.
